Measurements as given in the supplement of paper PMC8967900.

Tests used:
Test in all cases: selective drug sensitivity score (sDSS, relative to normal bone marrow) (sDSS (score)); higher = more potent and effective on the cell line relative to normal bone marrow cells
Conditions in all cases: 72 h
[1] = tested on: MOLT-16
[2] = tested on: NALL-1
[3] = tested on: COG-LL-319h
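Further: ALL cell lines in 384-well plates, five doses spanning 10,000-fold, each plate scaled between vehicle and 100 µmol/L benzalkonium chloride controls, sDSS an adapted area-under-curve metric.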

| SMILES | selective drug sensitivity score [1] | selective drug sensitivity score [2] | selective drug sensitivity score [3] |
| --- | --- | --- | --- |
| CNC(=O)c1ccc(C)c(-n2c(C)cc(OCc3ccc(F)cc3F)c(Br)c2=O)c1 (top concentration 1000 nM) | 0 | 0.3 | 0 |
| CONC(=O)c1ccccc1Nc1cc(Nc2cc(C)nn2C(C)C)ncc1Cl (top concentration 1000 nM) | -0.94 | -0.94 | 9.66 |
| CCOc1ccn(-c2ccc(F)cc2)c(=O)c1C(=O)Nc1ccc(Oc2ccnc(N)c2Cl)c(F)c1 (top concentration 2500 nM) | 0 | 0 | 0 |
| CC[C@@H]1[C@H](F)C(=O)N[C@@H]1COc1nccc2cc(C(N)=O)c(OC)cc12 (top concentration 10000 nM) | 0.98 | -1.32 | 2.88 |
| C[C@H]1C[C@@H](n2c(Nc3ccc(OC(F)(F)F)cc3)nc3cc(CCC(=O)O)ccc32)CC(C)(C)C1 (top concentration 10000 nM) | 5.66 | -0.14 | -0.14 |
| O=C(NCc1ccncc1)C12CC3CC(C1)CC(c1ccc(Cl)cc1)(C3)C2 (top concentration 50000 nM) | 1.58 | 3.58 | -0.62 |
| O=C(O)c1ccc(CN2CCC(CN[C@@H]3C[C@H]3c3ccccc3)CC2)cc1 (top concentration 100000 nM) | 0.28 | -0.32 | -0.62 |
| COc1cc(N2CCN(C)CC2)ccc1Nc1nccc(-c2cn(C)c3cnccc23)n1 [AZ191] (top concentration 10000 nM) | -1.32 | 2.88 | -2.92 |
| Cc1cc(Nc2nc(N[C@@H](C)c3ncc(F)cn3)ncc2Cl)[nH]n1 [AZD1480] (top concentration 1000 nM) | -4.28 | -1.48 | -1.68 |
| COc1cc(CCc2cc(NC(=O)c3ccc(N4CC(C)NC(C)C4)cc3)n[nH]2)cc(OC)c1 (stereo unspecified) [AZD4547] (top concentration 1000 nM) | -0.14 | -0.14 | -0.04 |
| CN(C)C(=O)c1ccc(S(=O)(=O)c2ccc(NC(=O)[C@@](C)(O)C(F)(F)F)c(Cl)c2)cc1 [AZD7545] (top concentration 10000 nM) | 5.3 | -0.2 | 0.8 |
| COc1cc(C)c(/C=C/C(C)=C/C=C/C(C)=C/C(=O)O)c(C)c1C [Acitretin] (top concentration 10000 nM) | -0.4 | -1.6 | -1.6 |
| CCC1(c2ccc(N)cc2)CCC(=O)NC1=O (stereo unspecified) [Aminoglutethimide] (top concentration 10000 nM) | 0 | 0 | 0 |
| CNC(=O)c1ccc(N2C(=S)N(c3cnc(C#N)c(C(F)(F)F)c3)C(=O)C23CCC3)cc1F [Apalutamide] (top concentration 10000 nM) | 0 | 0 | 0 |
| N#CC1(c2ccc(NC(=O)c3cccnc3NCc3ccncc3)cc2)CCCC1 [Apatinib] (top concentration 10000 nM) | 0 | 0 | 0.6 |
| Cc1nc2cccc(N)c2c(=O)n1C1CCC(=O)NC1=O (stereo unspecified) [Avadomide (CC122)] (top concentration 10000 nM) | 0 | 0 | 0 |
| Nc1nc(Nc2ccc3c(c2)CC[C@@H](N2CCCC2)CC3)nn1-c1cc2c(nn1)-c1ccccc1CCC2 [BGB324] (top concentration 10000 nM) | 2.92 | -2.68 | 0.22 |
| CC1(C)C(C(=O)Nc2ccc(S(=O)(=O)c3ccc(NC(=O)C4C(C)(C)C4(C)C)cc3)cc2)C1(C)C [BRD7116] (top concentration 10000 nM) | 1.26 | -0.24 | 1.26 |
| CCS(=O)(=O)N1CC(CC#N)(n2cc(-c3ncnc4[nH]ccc34)cn2)C1 [Baricitinib] (top concentration 2500 nM) | -1.94 | -1.94 | -1.94 |
| CC(O)(CS(=O)(=O)c1ccc(F)cc1)C(=O)Nc1ccc(C#N)c(C(F)(F)F)c1 (stereo unspecified) [Bicalutamide] (top concentration 10000 nM) | 6.92 | -1.68 | 3.72 |
| COc1cc(Nc2c(C#N)cnc3cc(OCCCN4CCN(C)CC4)c(OC)cc23)c(Cl)cc1Cl [Bosutinib] (top concentration 10000 nM) | 0.16 | -0.94 | 1.66 |
| Cc1cc2c(F)c(Oc3ncnn4cc(OC[C@@H](C)O)c(C)c34)ccc2[nH]1 [Brivanib] (top concentration 1000 nM) | -0.04 | -0.04 | -0.04 |
| Cc1ccc(-c2cc(C(F)(F)F)nn2-c2ccc(S(N)(=O)=O)cc2)cc1 [Celecoxib] (top concentration 10000 nM) | 0.34 | -0.06 | 0.04 |
| N.N.[Cl][Pt][Cl] [Cisplatin] (top concentration 100000 nM) | 17.7 | 6.84 | 19.4 |
| Cc1c2oc3c(C)ccc(C(=O)N[C@@H]4C(=O)N[C@H](C(C)C)C(=O)N5CCC[C@H]5C(=O)N(C)CC(=O)N(C)[C@@H](C(C)C)C(=O)O[C@@H]4C)c3nc-2c(C(=O)N[C@@H]2C(=O)N[C@H](C(C)C)C(=O)N3CCC[C@H]3C(=O)N(C)CC(=O)N(C)[C@@H](C(C)C)C(=O)O[C@@H]2C)c(N)c1=O [Dactinomycin] (top concentration 1000 nM) | 18.8 | 1.44 | 5.94 |
| O=C(O)CCCCC(CCSCc1ccccc1)SCc1ccccc1 (stereo unspecified) [Devimistat (CPI-613)] (top concentration 10000 nM) | 0 | 0.1 | 1.3 |
| CC(=O)O[C@@]12CO[C@@H]1C[C@H](O)[C@@]1(C)C(=O)[C@H](O)C3=C(C)[C@@H](OC(=O)[C@H](O)[C@@H](NC(=O)OC(C)(C)C)c4ccccc4)C[C@@](O)([C@@H](OC(=O)c4ccccc4)[C@H]21)C3(C)C [Docetaxel] (top concentration 1000 nM) | 23.5 | 15.9 | 21.2 |
